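GI50 = concentration required for 50% inhibition of growth. TGI is the concentration that stops growth completely.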
Experiments:
Test in all cases: NCI anticancer screen, dose series, 384-well format
[1] = system: 786-0 renal
[2] = system: A498 renal
[3] = system: A549 NSCLC
[4] = system: ACHN renal
[5] = system: BT-549 breast
[6] = system: CAKI-1 renal
[7] = system: CCRF-CEM leukemia
[8] = system: COLO 205 colon
[9] = system: DU-145 prostate
[10] = system: EKVX NSCLC
[11] = system: HCC-2998 colon
[12] = system: HCT-116 colon
[13] = system: HCT-15 colon
[14] = system: HL-60(TB) leukemia
[15] = system: HOP-62 NSCLC
[16] = system: HOP-92 NSCLC
[17] = system: HS 578T breast
[18] = system: HT29 colon
[19] = system: IGROV1 ovarian
[20] = system: K-562 leukemia
[21] = system: KM12 colon
[22] = system: LOX IMVI melanoma
[23] = system: M14 melanoma
[24] = system: MALME-3M melanoma
[25] = system: MCF7 breast
[26] = system: MDA-MB-231 breast
[27] = system: MDA-MB-435 melanoma
[28] = system: MDA-MB-468 breast
[29] = system: MOLT-4 leukemia
[30] = system: NCI-H226 lung
[31] = system: NCI-H23 lung
[32] = system: NCI-H322M lung
[33] = system: NCI-H460 NSCLC
[34] = system: NCI-H522 lung
[35] = system: NCI/ADR-RES ovarian
[36] = system: OVCAR-3 ovarian
[37] = system: OVCAR-4 ovarian
[38] = system: OVCAR-8 ovarian
[39] = system: PC-3 prostate
[40] = system: RPMI-8226 leukemia
[41] = system: RXF 393 renal
[42] = system: SF-268 CNS
[43] = system: SF-295 CNS
[44] = system: SF-539 CNS
[45] = system: SK-MEL-28 melanoma
[46] = system: SK-MEL-5 melanoma
[47] = system: SK-OV-3 ovarian
[48] = system: SN12C renal
[49] = system: SNB-19 CNS
[50] = system: SNB-75 CNS
[51] = system: SW-620 colon
[52] = system: T-47D breast
[53] = system: TK-10 renal
[54] = system: U251 glioblastoma
[55] = system: UACC-257 melanoma
[56] = system: UACC-62 melanoma
[57] = system: UO-31 renal

CC1(C)OCCn2c1nc1c(N3CCOCC3)nc(-c3cnc(N)nc3)nc12
GI50 [1]: 1280 nM
TGI [1]: 9.93 µM
GI50 [2]: 314 nM
TGI [2]: 2200 nM
GI50 [3]: 477 nM
TGI [3]: 6.09 µM
GI50 [4]: 467 nM
TGI [4]: 6.87 µM
GI50 [5]: 799 nM
TGI [5]: 5.59 µM
GI50 [6]: 279 nM
TGI [6]: 2740 nM
GI50 [7]: 491 nM
TGI [7]: 7.05 µM
GI50 [8]: 378 nM
TGI [8]: 9.22 µM
GI50 [9]: 527 nM
TGI [9]: 9.15 µM
GI50 [10]: 519 nM
TGI [10]: 4.1 µM
GI50 [11]: 885 nM
TGI [11]: > 100 µM
GI50 [12]: 545 nM
TGI [12]: > 100 µM
GI50 [13]: 432 nM
TGI [13]: > 100 µM
GI50 [14]: 153 nM
TGI [14]: 1910 nM
GI50 [15]: 771 nM
TGI [15]: > 100 µM
GI50 [16]: 385 nM
TGI [16]: 2890 nM
GI50 [17]: 275 nM
TGI [17]: 1350 nM
GI50 [18]: 412 nM
TGI [18]: > 100 µM
GI50 [19]: 158 nM
TGI [19]: 659 nM
GI50 [20]: 1950 nM
TGI [20]: > 100 µM
GI50 [21]: 834 nM
TGI [21]: > 100 µM
GI50 [22]: 556 nM
TGI [22]: 3.44 µM
GI50 [23]: 494 nM
TGI [23]: > 100 µM
GI50 [24]: 161 nM
TGI [24]: 749 nM
GI50 [25]: 96.4 nM
TGI [25]: > 100 µM
GI50 [26]: 584 nM
TGI [26]: > 100 µM
GI50 [27]: 1230 nM
TGI [27]: > 100 µM
GI50 [28]: 399 nM
TGI [28]: 1780 nM
GI50 [29]: 218 nM
TGI [29]: 1200 nM
GI50 [30]: 348 nM
TGI [30]: 2900 nM
GI50 [31]: 446 nM
TGI [31]: > 100 µM
GI50 [32]: 458 nM
TGI [32]: 8.7 µM
GI50 [33]: 199 nM
TGI [33]: > 100 µM
GI50 [34]: 368 nM
TGI [34]: > 100 µM
GI50 [35]: 1770 nM
TGI [35]: > 100 µM
GI50 [36]: 513 nM
TGI [36]: 7.28 µM
GI50 [37]: 1040 nM
TGI [37]: 5.79 µM
GI50 [38]: 742 nM
TGI [38]: > 100 µM
GI50 [39]: 306 nM
TGI [39]: 6.92 µM
GI50 [40]: 193 nM
TGI [40]: 667 nM
GI50 [41]: 758 nM
TGI [41]: 4.42 µM
GI50 [42]: 1070 nM
TGI [42]: > 100 µM
GI50 [43]: 316 nM
TGI [43]: 2020 nM
GI50 [44]: 1040 nM
TGI [44]: > 100 µM
GI50 [45]: 418 nM
TGI [45]: 5.42 µM
GI50 [46]: 519 nM
TGI [46]: 2560 nM
GI50 [47]: 199 nM
TGI [47]: 1200 nM
GI50 [48]: 389 nM
TGI [48]: 5.49 µM
GI50 [49]: 5.61 µM
TGI [49]: > 100 µM
GI50 [50]: 232 nM
TGI [50]: 2270 nM
GI50 [51]: 1600 nM
TGI [51]: > 100 µM
GI50 [52]: 128 nM
TGI [52]: 638 nM
GI50 [53]: 412 nM
TGI [53]: 3.68 µM
GI50 [54]: 2250 nM
TGI [54]: > 100 µM
GI50 [55]: 1830 nM
TGI [55]: > 100 µM
GI50 [56]: 556 nM
TGI [56]: 2980 nM
GI50 [57]: 416 nM
TGI [57]: > 100 µM
